# According to article PMC8291583, “Design, synthesis, and evaluation of 3,7-substituted coumarin derivatives as multifunctional Alzheimer’s disease agents” (Journal of Enzyme Inhibition and Medicinal Chemistry, 2021):
# Like-named read-outs stand apart in the source and are kept apart here.
# How the values were obtained:
# BuChE from equine serum = target: T1, BuChE from equine serum (Equus caballus, UniProt P81908); test: biochemical
# T1 construct: 12 U/ml BuChE from equine serum; from tissue; host or cells: equine serum
# Method: (§1) Cholinesterase activity is determined using a modified colorimetric method first described by Ellman[40]. […] The stock was then further diluted by factors of ten to produce solutions of 1 mM, 100 µM, 10 µM, 1 µM, and 0.1 µM which corresponds to concentrations of 100 µM, 10 µM, 1 µM, 0.1 µM, and 0.01 µM in the final reaction mixture. The test concentrations were stored in the refrigerator until the day of the assay. Trisma HCl buffer (50 mM, adjusted to pH 8 with 2 N NaOH) was prepared as the buffer and used to prepare enzyme stock solution (22 U/ml for Electrophorus electricus AChE and 12 U/ml BuChE from equine serum), 15 mM acetylthiocholine iodide, 15 mM S-butyrylthiocholine iodide and 1.5 mM DTNB (Ellman’s reagent). The enzyme stock solution was stabilised with 1% bovine serum albumin and stored in aliquots at −80 °C. A clear, flat bottom 96 well plate was used to perform the experiments with each concentration performed in triplicate. Prior to the assay the background absorbance for each compound at the different test concentrations was measured and accounted for when reading the final absorbance. […] Following this, 30 µl of the substrate was added to each well simultaneously using a multi pipette. […] A one-sample t-test was performed on the data to test for statistical significance.
# [1] = target: Electrophorus electricus AChE (Electrophorus electricus, UniProt O42275); test: biochemical
# Method: as §1
# recombinant human MAO-A = target: T2, recombinant human MAO-A (Homo sapiens, UniProt P21397); test: biochemical
# T2 sequence (P21397 1-527): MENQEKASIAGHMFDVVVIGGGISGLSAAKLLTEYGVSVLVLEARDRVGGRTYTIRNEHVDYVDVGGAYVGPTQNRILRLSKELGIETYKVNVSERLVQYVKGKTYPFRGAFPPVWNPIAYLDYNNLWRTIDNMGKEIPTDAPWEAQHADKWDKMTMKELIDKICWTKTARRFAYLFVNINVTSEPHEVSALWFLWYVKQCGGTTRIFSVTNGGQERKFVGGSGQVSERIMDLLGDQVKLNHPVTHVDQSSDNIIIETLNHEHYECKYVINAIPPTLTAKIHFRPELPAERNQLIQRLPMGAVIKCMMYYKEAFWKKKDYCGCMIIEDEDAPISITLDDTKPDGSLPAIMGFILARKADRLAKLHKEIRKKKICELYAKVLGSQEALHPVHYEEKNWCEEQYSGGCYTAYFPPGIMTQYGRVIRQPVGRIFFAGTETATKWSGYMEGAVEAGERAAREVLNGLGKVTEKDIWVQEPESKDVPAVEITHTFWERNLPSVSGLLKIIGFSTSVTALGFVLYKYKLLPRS
# Method: The stock was then further diluted by factors of ten to produce solutions of 1 mM, 100 µM, 10 µM, 1 µM, and 0.1 µM which would correspond to concentrations of 100 µM, 10 µM, 1 µM, 0.1 µM, and 0.01 µM in the final reaction mixture. A potassium phosphate buffer ([…] 100 mM, pH 7.4, 0.9% w/v NaCl) was prepared and refrigerated until further use. The enzyme stock solutions were prepared by dissolving 2.5 mg of enzyme in 33.33 ml of phosphate buffer to produce stock solutions of 0.075 mg/ml which were stored in aliquots at −80 °C until use. Once in the final reaction mixture, this enzyme solution will have a concentration of 0.0075 mg/ml. […] The fresh substrate was prepared on the day of the assay. The assay was carried out in 2 ml Eppendorf vials. […] Following this, 25 µl of the enzyme stock were added to each vial in 10 s intervals and the vials were incubated at 37 °C for 10 min. […] To stop the reaction at the end of this time 150 hx00B5;l of 2 N NaOH was added and the mixture was shaken. Using a micropipette 80 hx00B5;l of the mixture was transferred to a well in a black 96 well plate. The plate was placed in the fluorescent plate reader and read at an excitation/emission wavelength of 310 nm/410 nm. Each assay was run in triplicate and the data were analysed with Graph Pad Prism 8 software (San Diego, USA).
# The MAO inhibitory activity of the compounds was assessed using a fluorometric assay with recombinant human MAO-A and human MAO-B enzymes.
# recombinant human MAO-B = recombinant human MAO-B (Homo sapiens, UniProt P27338); test: MAO-B fluorometric assay (kynuramine); assay type: biochemical
# Method: . The stock was then further diluted by factors of ten to produce solutions of 1 mM, 100 µM, 10 µM, 1 µM, and 0.1 µM which would correspond to concentrations of 100 µM, 10 µM, 1 µM, 0.1 µM, and 0.01 µM in the final reaction mixture. A potassium phosphate buffer ([…] 100 mM, pH 7.4, 0.9% w/v NaCl) was prepared and refrigerated until further use. The enzyme stock solutions were prepared by dissolving 2.5 mg of enzyme in 33.33 ml of phosphate buffer to produce stock solutions of 0.075 mg/ml which were stored in aliquots at −80 °C until use. […]. The substrate was prepared by dissolving kynuramine in potassium buffer and was prepared as two separate concentrations; […]. The fresh substrate was prepared on the day of the assay. The assay was carried out in 2 ml Eppendorf vials. […] Following this, 25 µl of the enzyme stock were added to each vial in 10 s intervals and the vials were incubated at 37 °C for 10 min. After this time period 15 µl of kynuramine (750 µM for MAO-A and 500 µM for MAO-B) was added at 10 s intervals and further incubated for 20 min. To stop the reaction at the end of this time 150 hx00B5;l of 2 N NaOH was added and the mixture was shaken. Using a micropipette 80 hx00B5;l of the mixture was transferred to a well in a black 96 well plate. The plate was placed in the fluorescent plate reader and read at an excitation/emission wavelength of 310 nm/410 nm. Each assay was run in triplicate and the data were analysed with Graph Pad Prism 8 software (San Diego, USA).
# The MAO inhibitory activity of the compounds was assessed using a fluorometric assay with recombinant human MAO-A and human MAO-B enzymes. […].
# [2] = test system: MPP+-compromised SH-SY5Y neuroblastoma cells; assay type: cell-based, human
# Method: SH-SY5Y cells were seeded onto a 96-well plate in a growth medium at a density of 10,000 cells/well. Cells were pre-treated with test compounds at a concentration of 10 µM and thereafter 2000 µM MPP^+ following a 2-h incubation period. Afterwards, cells were incubated for 24 h and MTT colorimetric assay was used to measure cell viability relative to untreated control. To determine the data’s statistical significance, the One-way ANOVA Turkey’s multiple comparison test was conducted on all experimental replicates using GraphPad Prism® 8 (San Diego, USA).
# The SH-SY5Y cells were pre-treated with 10 µM of the test compounds for 2 h followed by the addition of 2000 µM of MPP^+.
# [3] = Ellman method, 25 °C, pH 8, read-out: BuChE IC50
# [4] = Ellman method, 25 °C, pH 8, read-out: AChE IC50
# [5] = kynuramine 45 µM, 37 °C, read-out: MAO-A IC50
# [6] = kynuramine 30 µM, 37 °C, read-out: MAO-B IC50
# [7] = 10 µM compound, 2 h pre-treatment, 2000 µM MPP+, 24 h, SH-SY5Y
# T1 sequence (P81908 whole entry): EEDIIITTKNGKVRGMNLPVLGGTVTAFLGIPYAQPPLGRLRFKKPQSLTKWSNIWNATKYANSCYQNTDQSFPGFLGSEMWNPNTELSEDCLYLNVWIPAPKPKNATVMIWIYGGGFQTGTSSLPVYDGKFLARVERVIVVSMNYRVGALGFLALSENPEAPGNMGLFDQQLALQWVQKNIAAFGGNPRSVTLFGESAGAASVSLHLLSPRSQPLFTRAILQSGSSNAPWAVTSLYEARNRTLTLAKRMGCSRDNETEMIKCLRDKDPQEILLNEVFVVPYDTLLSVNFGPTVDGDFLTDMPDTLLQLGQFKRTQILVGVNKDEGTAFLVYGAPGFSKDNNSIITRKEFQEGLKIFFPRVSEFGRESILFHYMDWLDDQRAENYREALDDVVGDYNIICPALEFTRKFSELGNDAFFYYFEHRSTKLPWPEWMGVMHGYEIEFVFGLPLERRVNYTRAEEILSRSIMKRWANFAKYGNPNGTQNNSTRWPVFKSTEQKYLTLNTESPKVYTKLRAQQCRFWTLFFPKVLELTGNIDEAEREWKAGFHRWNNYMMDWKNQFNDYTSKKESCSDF
# Chain of Electrophorus electricus AChE (O42275 24-633): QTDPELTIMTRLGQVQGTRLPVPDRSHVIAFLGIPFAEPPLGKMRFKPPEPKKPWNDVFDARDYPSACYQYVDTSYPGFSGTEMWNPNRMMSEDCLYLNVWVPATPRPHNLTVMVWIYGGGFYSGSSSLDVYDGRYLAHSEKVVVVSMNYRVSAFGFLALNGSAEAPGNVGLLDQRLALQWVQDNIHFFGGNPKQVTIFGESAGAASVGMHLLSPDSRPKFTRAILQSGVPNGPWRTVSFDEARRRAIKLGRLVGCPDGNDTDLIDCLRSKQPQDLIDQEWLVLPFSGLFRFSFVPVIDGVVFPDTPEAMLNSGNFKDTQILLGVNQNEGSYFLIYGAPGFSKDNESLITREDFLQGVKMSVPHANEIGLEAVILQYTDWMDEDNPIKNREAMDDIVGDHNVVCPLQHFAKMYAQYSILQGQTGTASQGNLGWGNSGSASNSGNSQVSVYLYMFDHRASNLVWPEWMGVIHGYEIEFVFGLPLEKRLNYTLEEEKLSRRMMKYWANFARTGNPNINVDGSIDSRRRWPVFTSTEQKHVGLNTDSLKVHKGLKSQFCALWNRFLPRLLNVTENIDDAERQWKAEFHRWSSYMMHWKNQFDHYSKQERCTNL
# Chain of recombinant human MAO-B (P27338 whole entry): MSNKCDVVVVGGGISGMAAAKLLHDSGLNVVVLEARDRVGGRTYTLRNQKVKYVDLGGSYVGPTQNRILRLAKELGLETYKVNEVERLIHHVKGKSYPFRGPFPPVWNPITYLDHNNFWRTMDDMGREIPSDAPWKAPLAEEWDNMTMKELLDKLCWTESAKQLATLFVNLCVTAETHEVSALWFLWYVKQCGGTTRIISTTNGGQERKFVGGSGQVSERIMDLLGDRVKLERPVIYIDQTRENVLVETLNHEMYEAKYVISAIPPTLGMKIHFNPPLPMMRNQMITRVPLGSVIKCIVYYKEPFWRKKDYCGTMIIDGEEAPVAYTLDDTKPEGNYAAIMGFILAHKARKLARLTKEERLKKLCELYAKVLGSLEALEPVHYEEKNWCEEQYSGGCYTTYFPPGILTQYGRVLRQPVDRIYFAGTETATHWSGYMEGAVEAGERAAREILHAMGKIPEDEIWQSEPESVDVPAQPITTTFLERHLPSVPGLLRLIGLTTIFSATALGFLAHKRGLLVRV
SMILES,IC50 (BuChE from equine serum; [3]),"IC50 [1, 4]",IC50 (recombinant human MAO-A; [5]),SI MAO-B (MAO-B selectivity index = IC50(MAO-A)/IC50(MAO-B)) (recombinant human MAO-B),IC50 (recombinant human MAO-B; [6]),"MPP+ neuroprotection (difference in percentage cell viability vs MPP+ only treated cells) [2, 7]",IC50 (BuChE from equine serum),IC50 ([1]; AChE IC50),IC50 (recombinant human MAO-A; MAO-A IC50),IC50 (recombinant human MAO-B),MPP+ neuroprotection (difference in percentage cell viability vs MPP+ only treated cells) [2]
"CCN(CC)C(=O)Oc1ccc2cc(C)c(=O)oc2c1 [Compound 3, 3-methyl-2-oxo-2H-1-benzopyran-7-yl-diethylcarbamate]",> 100 µM,> 100 µM,2.82 µM,5.67,0.498 µM,15.59%,–,–,–,–,–
"Cc1cc2ccc(O)cc2oc1=O [Compound 1, 7-hydroxy-3-methyl-2H-1-benzopyran-2-one]",–,–,–,2.04,–,–,20.2 µM,> 100 µM,33.4 µM,16.4 µM,26.24%
"Cc1cc2ccc(OCCc3ccccc3)cc2oc1=O [Compound 2, 3-methyl-7-(2-phenylethoxy)-2H-1-benzopyran-2-one]",> 100 µM,> 100 µM,0.658 µM,47.7,0.014 µM,24.85%,–,–,–,–,–
